Test results reported in publication PMC8000041, “New Insights into the Metabolism of the Flavanones Eriocitrin and Hesperidin: A Comparative Human Pharmacokinetic Study” (Antioxidants, 2021).
Read-outs that look alike come from different tables or passages of the source.

Key:
[1] = Plasma metabolites and pharmacokinetics after single intake of lemon or orange extract (UPLC-ESI-QTOF-MS, non-compartmental analysis); assay type: in vivo, human; settings: for Occurrence Plasma LE (number of volunteers in whom the metabolite was detected): after consuming lemon extract; for Occurrence Plasma LE (number of volunteers in whom the metabolite was detected) / Occurrence Plasma OE (number of volunteers in whom the metabolite was detected): n = 16 volunteers; for Occurrence Plasma OE (number of volunteers in whom the metabolite was detected): after consuming orange extract; for Tmax / Cmax / AUC(0-t): mean ± SD
From the text: Secondary endpoints involved the evaluation of post-prandial changes in several biomarkers dealing with metabolism, inflammation, and oxidative stress after a high-fat-high-sugars meal. The design was a randomized pharmacokinetic, double-blind, crossover, single-dose trial consisted of 2 test-phases. The volunteers were randomly allocated into two groups using a computerized random number list. Each group consumed one of the citrus extracts by following a test-phase that lasted for 1 day for blood sampling and urine collection, a 2-week washout period between each test phase, and crossover before consuming the other extract. The volunteers were instructed to avoid the consumption of flavanone-containing products, from a list provided by the researchers, for 1 week before the study and during the wash-out phase (citrus fruit juices, tomatoes, tomato-based sauces (like ‘ketchup’), peppers, almonds, etc.). […] The 3 capsules provided a total of 1.95 g orange extract, containing 260 mg hesperidin, and 3.1 g lemon extract, containing 260 mg eriocitrin. […] Plasma samples were obtained by centrifugation of peripheral venous blood at 14,000× g for 15 min at 4 °C and immediately frozen at −80 °C. Glucose, total cholesterol, HDL-cholesterol, LDL-cholesterol, triglycerides, insulin, homeostatic model assessment insulin resistance (HOMA-IR), gamma-glutamyl transferase (GGT), and alanine aminotransferase (ALT) were determined as previously reported. […] A previously validated method for analyzing phenolic metabolites in biological samples, including flavanone-derived metabolites, was used. […] After centrifugation at 14,000× g for 10 min at 4 °C, the supernatant was evaporated in a speed vacuum concentrator. Finally, samples were re-suspended in 100 µL of methanol, filtered through a 0.22 µm cellulose filters before analysis by UPLC- ESI-QTOF-MS. A targeted screening strategy was applied to identify metabolites that could be present after consuming the citrus extracts. Twenty-eight possible compounds were browsed in all the samples. The list of compounds included the polyphenols present in the extracts, with particular focus on the flavanone rutinosides hesperidin and eriocitrin, their respective aglycones hesperetin, and eriodictyol, as well as their derived phase-II conjugates (glucuronides, sulfates, sulfoglucuronides, etc.). The exact mass of each proposed compound was extracted using an extraction window of 0.01 m/z. The metabolites hesperetin 7-O-glucuronide, hesperetin 3′-O-glucuronide, hesperetin 3-O-sulfate, naringenin 4′-O-glucuronide, and naringenin 7′-O-glucuronide were quantified with their corresponding standards. […] The parent phenolic compounds were quantified with their corresponding standards. In the case of some relevant conjugated metabolites, which standards were not available (eriodictyol and homoeriodictyol conjugates), their quantification was achieved by using relative response factors (RRFs) as previously described. Briefly, RRFs are useful to check the different responses of metabolites in the mass spectrometer vs. their UV signal. While the ionization response of free vs. conjugated forms is usually very different, their UV signal response is quite similar. To this purpose, we injected in a HPLC-DAD-ESI-Q (MS) the plasma samples (n = 5) with the highest concentrations of those conjugated metabolites. Concentrations were calculated by integrating the area from their corresponding UV peaks and compared with the UV peak area of a known concentration of their corresponding available parent compounds (eriodictyol and homoeriodictyol). The concentrations calculated were used to compare the MS response for each conjugated-aglycone pair. Statistical analyses were carried out using the SPSS Software, version 23.0 (SPSS Inc., Chicago, IL, USA). Data are expressed as mean ± SD. The empirical distribution of data with the normality assumption was tested with the Shapiro-Wilk test. […]

[2] = Urinary excretion of flavanone-derived metabolites after single intake of lemon or orange extract (UPLC-ESI-QTOF-MS); assay type: in vivo, human; settings: for Urinary excretion F1: urine fraction 0-4 h; for Urinary excretion F1 / Urinary excretion F2 / Urinary excretion F3 / Urinary excretion F4 / Urinary excretion Total F: mean ± SD; for Urinary excretion F2: urine fraction 4-8 h; for Urinary excretion F3: urine fraction 8-10 h; for Urinary excretion F4: urine fraction 10-24 h; for Urinary excretion Total F: sum of fractions F1-F4 (24 h); for Occurrence Urine LE (number of volunteers in whom the metabolite was detected): after consuming lemon extract; for Occurrence Urine LE (number of volunteers in whom the metabolite was detected) / Occurrence Urine OE (number of volunteers in whom the metabolite was detected): n = 16 volunteers; for Occurrence Urine OE (number of volunteers in whom the metabolite was detected): after consuming orange extract
From the text: Secondary endpoints involved the evaluation of post-prandial changes in several biomarkers dealing with metabolism, inflammation, and oxidative stress after a high-fat-high-sugars meal. The design was a randomized pharmacokinetic, double-blind, crossover, single-dose trial consisted of 2 test-phases. The volunteers were randomly allocated into two groups using a computerized random number list. Each group consumed one of the citrus extracts by following a test-phase that lasted for 1 day for blood sampling and urine collection, a 2-week washout period between each test phase, and crossover before consuming the other extract. The volunteers were instructed to avoid the consumption of flavanone-containing products, from a list provided by the researchers, for 1 week before the study and during the wash-out phase (citrus fruit juices, tomatoes, tomato-based sauces (like ‘ketchup’), peppers, almonds, etc.). […] The 3 capsules provided a total of 1.95 g orange extract, containing 260 mg hesperidin, and 3.1 g lemon extract, containing 260 mg eriocitrin. […] Untreated urine samples were aliquoted and frozen at −80 °C for up to 4 weeks until analyses, avoiding freeze-thaw cycles to avoid metabolites’ deconjugation. Moreover, three measurements of blood pressure and heart rate were taken before each time-point of blood withdrawal. […] A previously validated method for analyzing phenolic metabolites in biological samples, including flavanone-derived metabolites, was used. […] After centrifugation at 14,000× g for 10 min at 4 °C, the supernatant was evaporated in a speed vacuum concentrator. Finally, samples were re-suspended in 100 µL of methanol, filtered through a 0.22 µm cellulose filters before analysis by UPLC- ESI-QTOF-MS. […] A targeted screening strategy was applied to identify metabolites that could be present after consuming the citrus extracts. Twenty-eight possible compounds were browsed in all the samples. The list of compounds included the polyphenols present in the extracts, with particular focus on the flavanone rutinosides hesperidin and eriocitrin, their respective aglycones hesperetin, and eriodictyol, as well as their derived phase-II conjugates (glucuronides, sulfates, sulfoglucuronides, etc.). The exact mass of each proposed compound was extracted using an extraction window of 0.01 m/z. The metabolites hesperetin 7-O-glucuronide, hesperetin 3′-O-glucuronide, hesperetin 3-O-sulfate, naringenin 4′-O-glucuronide, and naringenin 7′-O-glucuronide were quantified with their corresponding standards. […] The parent phenolic compounds were quantified with their corresponding standards. In the case of some relevant conjugated metabolites, which standards were not available (eriodictyol and homoeriodictyol conjugates), their quantification was achieved by using relative response factors (RRFs) as previously described. Briefly, RRFs are useful to check the different responses of metabolites in the mass spectrometer vs. their UV signal. While the ionization response of free vs. conjugated forms is usually very different, their UV signal response is quite similar. To this purpose, we injected in a HPLC-DAD-ESI-Q (MS) the plasma samples (n = 5) with the highest concentrations of those conjugated metabolites. Concentrations were calculated by integrating the area from their corresponding UV peaks and compared with the UV peak area of a known concentration of their corresponding available parent compounds (eriodictyol and homoeriodictyol). The concentrations calculated were used to compare the MS response for each conjugated-aglycone pair.

[3] = lemon extract (3.1 g, 260 mg eriocitrin)
[4] = orange extract (1.95 g, 260 mg hesperidin)

Compound | Occurrence Plasma LE (number of volunteers in whom the metabolite was detected) [1] | Occurrence Plasma OE (number of volunteers in whom the metabolite was detected) [1] | Urinary excretion F1 [2, 3] | Urinary excretion F2 ([2]; lemon extract) | Urinary excretion F3 ([2]; lemon extract) | Urinary excretion F4 ([2]; lemon extract) | Urinary excretion F1 [2, 4] | Urinary excretion Total F ([2]; orange extract) | Urinary excretion F2 ([2]; orange extract) | Urinary excretion F3 ([2]; orange extract) | Urinary excretion F4 ([2]; orange extract) | Occurrence Urine LE (number of volunteers in whom the metabolite was detected) [2] | Occurrence Urine OE (number of volunteers in whom the metabolite was detected) [2] | also measured
COc1ccc(C2CC(=O)c3c(O)cc(O)cc3O2)cc1OS(=O)(=O)O (stereo not drawn) [M14, Hesperetin 3′-O-sulfate] | 16 | 16 | 1.9 ± 2.6 µg/mg creatinine | 4.3 ± 4.5 µg/mg creatinine | 3.3 ± 3.1 µg/mg creatinine | 0.7 ± 0.6 µg/mg creatinine | 0.1 ± 0.3 µg/mg creatinine | 3.8 ± 7.3 µg/mg creatinine | 1.2 ± 3.3 µg/mg creatinine | 1.9 ± 3.1 µg/mg creatinine | 0.6 ± 0.6 µg/mg creatinine | 16 | 16 | Tmax ([1]; after orange (hesperidin) extract): 8.4 ± 1.5 h; Cmax ([1]; human, oral, 1.95 g, after orange (hesperidin) extract): 178 ± 286 nM; AUC(0-t) ([1]; human, oral, 1.95 g, after orange (hesperidin) extract, read-out: AUC0-t): 0.635 ± 1.17 µM·h; Tmax ([1]; human, oral, 1.95 g, after orange (hesperidin) extract, read-out: Tmax): 8.5 h; Cmax ([1]; human, oral, 3.1 g, after lemon extract): 527 ± 358 nM; AUC(0-t) ([1]; human, oral, 3.1 g, after lemon extract, read-out: AUC0-t): 2.04 ± 1.81 µM·h; Tmax ([1]; human, oral, 3.1 g, after lemon extract, read-out: Tmax): 6.5 ± 1.9 h; Urinary excretion after lemon extract vs. orange extract ([2]; ratio lemon / orange extract intake): around 2 fold
O=C1C[C@@H](c2ccc(O)cc2)Oc2cc(O)cc(O)c21 [M15, Naringenin] | 6 | 2 | – | – | – | – | – | – | – | – | – | 9 | 5 | –
COc1cc([C@@H]2CC(=O)c3c(O)cc(O)cc3O2)ccc1O [M16, Homoeriodictyol] | 15 | 1 | – | – | – | – | – | – | – | – | – | 12 | 1 | –
COc1ccc([C@@H]2CC(=O)c3c(O)cc(O)cc3O2)cc1O [M17, Hesperetin] | 8 | 3 | – | – | – | – | – | – | – | – | – | 5 | 8 | –
Eriodictyol sulfate [M13] | 16 | 10 | 4.6 ± 5.0 µg/mg creatinine | 14.6 ± 17.3 µg/mg creatinine | 11.9 ± 12.6 µg/mg creatinine | 1.5 ± 1.5 µg/mg creatinine | 0.02 ± 0.01 µg/mg creatinine | 0.6 ± 0.9 µg/mg creatinine | 0.1 ± 0.1 µg/mg creatinine | 0.2 ± 0.4 µg/mg creatinine | 0.3 ± 0.4 µg/mg creatinine | 16 | 12 | AUC(0-t) ([1]; after lemon extract): 6.12 ± 6.631 µM·h; Cmax ([1]; after lemon extract): 1710 ± 1510 nM; Tmax ([1]; after lemon extract): 5.7 ± 2.5 h; Urinary excretion Total F ([2]; lemon extract): 32.6 ± 36.5 µg/mg creatinine
Eriodictyol sulfoglucuronide [M9] | 15 | 0 | – | – | – | – | – | – | – | – | – | 5 | 0 | –
